The text below walks through data of patent publication US7307091B2, “Deuterated 3-piperidinopropiophenone and medicaments containing said compounds” (BDD Berolina Drug Development GmbH, priority 2001, dated 2007).

For data set [1], the target named is T1, CYP2D6 (Homo sapiens, UniProt P10635).
T1 construct: expressed in transfected cells; host or cells: cell line named only by the CYP it carries
Description: In-vitro biological degradation by cytochrome P450 enzymes: CYP2D6. Type of data set: in vitro ADME.

Data set [2] addresses T2, CYP2C19 (Homo sapiens, UniProt P33261).
T2 construct: expressed in transfected cells; host or cells: cell line named only by the CYP it carries
As to the kind of experiment: In-vitro biological degradation by cytochrome P450 enzymes: CYP2C19. Type of data set: in vitro ADME.

Data set [3] concerns the target T3, CYP1A1 (Homo sapiens, UniProt P04798).
T3 construct: expressed in transfected cells; host or cells: cell line named only by the CYP it carries
T3 sequence (P04798 1-512): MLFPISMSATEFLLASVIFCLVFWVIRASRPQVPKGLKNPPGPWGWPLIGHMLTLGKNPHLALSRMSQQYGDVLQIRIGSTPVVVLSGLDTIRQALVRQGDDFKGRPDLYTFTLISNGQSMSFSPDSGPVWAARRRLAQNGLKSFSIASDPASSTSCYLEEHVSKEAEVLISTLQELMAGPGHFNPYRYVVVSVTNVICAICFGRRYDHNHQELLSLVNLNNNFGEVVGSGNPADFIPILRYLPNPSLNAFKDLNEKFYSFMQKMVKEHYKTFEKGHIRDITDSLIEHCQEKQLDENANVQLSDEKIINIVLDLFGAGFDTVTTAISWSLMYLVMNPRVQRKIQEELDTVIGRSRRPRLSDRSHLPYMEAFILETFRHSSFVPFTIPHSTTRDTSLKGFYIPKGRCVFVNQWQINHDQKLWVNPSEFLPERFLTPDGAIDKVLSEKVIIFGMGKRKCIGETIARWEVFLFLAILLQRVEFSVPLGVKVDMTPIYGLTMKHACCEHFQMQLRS
As to the kind of experiment: In-vitro biological degradation by cytochrome P450 enzymes: CYP1A1. Type of data set: in vitro ADME. As to conditions: 37° C., pH 7.4, 3 mM NADPH, protein 0.5 mg/mL; FIG. 1.

The target of data set [4] is T4, CYP1A2 (Homo sapiens, UniProt P05177).
T4 construct: expressed in transfected cells; host or cells: cell line named only by the CYP it carries
T4 sequence (P05177 1-516): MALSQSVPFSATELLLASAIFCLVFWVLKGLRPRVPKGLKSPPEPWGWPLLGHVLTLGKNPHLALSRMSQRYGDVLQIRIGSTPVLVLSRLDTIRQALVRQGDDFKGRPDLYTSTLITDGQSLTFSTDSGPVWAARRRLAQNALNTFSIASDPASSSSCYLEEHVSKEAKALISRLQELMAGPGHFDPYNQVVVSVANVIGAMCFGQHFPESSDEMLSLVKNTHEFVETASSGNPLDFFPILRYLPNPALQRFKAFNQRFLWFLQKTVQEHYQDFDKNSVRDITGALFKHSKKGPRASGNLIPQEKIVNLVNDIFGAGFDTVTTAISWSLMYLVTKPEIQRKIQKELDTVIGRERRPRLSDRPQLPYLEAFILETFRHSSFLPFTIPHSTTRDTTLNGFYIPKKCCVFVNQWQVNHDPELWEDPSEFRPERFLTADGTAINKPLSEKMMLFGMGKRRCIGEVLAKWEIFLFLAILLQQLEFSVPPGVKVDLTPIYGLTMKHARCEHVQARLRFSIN
As to the kind of experiment: In-vitro biological degradation by cytochrome P450 enzymes: CYP1A2. Type of data set: in vitro ADME. As to conditions: 37° C., pH 7.4, 3 mM NADPH, protein 0.5 mg/mL; FIG. 1.

For data set [5] the following is noted: strong first-pass effect; background statement; cited from earlier work.
In data set [6] the target is T5, CYP2C8 (Homo sapiens, UniProt P10632).
T5 construct: expressed in transfected cells; host or cells: cell line named only by the CYP it carries
T5 sequence (P10632 1-490): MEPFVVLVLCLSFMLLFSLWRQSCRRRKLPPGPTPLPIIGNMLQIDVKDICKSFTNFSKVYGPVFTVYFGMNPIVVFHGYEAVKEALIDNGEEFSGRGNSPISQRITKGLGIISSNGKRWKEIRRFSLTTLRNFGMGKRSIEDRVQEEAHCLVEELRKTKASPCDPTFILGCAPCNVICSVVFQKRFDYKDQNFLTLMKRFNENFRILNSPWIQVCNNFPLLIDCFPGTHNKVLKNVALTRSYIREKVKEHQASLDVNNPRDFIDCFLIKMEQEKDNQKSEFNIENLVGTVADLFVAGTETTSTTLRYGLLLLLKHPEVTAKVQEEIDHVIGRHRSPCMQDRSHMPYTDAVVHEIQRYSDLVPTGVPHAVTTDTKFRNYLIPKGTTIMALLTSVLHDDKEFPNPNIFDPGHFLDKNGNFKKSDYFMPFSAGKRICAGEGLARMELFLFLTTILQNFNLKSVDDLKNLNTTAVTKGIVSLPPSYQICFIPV
As to the kind of experiment: In-vitro biological degradation by cytochrome P450 enzymes: CYP2C8. The note with it: 37° C., pH 7.4, 3 mM NADPH, protein 0.5 mg/mL; FIG. 1. Type of data set: in vitro ADME.

Data set [7] has as its target T6, CYP3A4 (Homo sapiens, UniProt P08684).
T6 construct: expressed in transfected cells; host or cells: cell line named only by the CYP it carries
As to the kind of experiment: In-vitro biological degradation by cytochrome P450 enzymes: CYP3A4. It is filed as in vitro ADME. As to conditions: 37° C., pH 7.4, 3 mM NADPH, protein 0.5 mg/mL; FIG. 1.

The target of data set [8] is T7, CYP2E1 (Homo sapiens, UniProt P05181).
T7 construct: expressed in transfected cells; host or cells: cell line named only by the CYP it carries
T7 sequence (P05181 whole entry): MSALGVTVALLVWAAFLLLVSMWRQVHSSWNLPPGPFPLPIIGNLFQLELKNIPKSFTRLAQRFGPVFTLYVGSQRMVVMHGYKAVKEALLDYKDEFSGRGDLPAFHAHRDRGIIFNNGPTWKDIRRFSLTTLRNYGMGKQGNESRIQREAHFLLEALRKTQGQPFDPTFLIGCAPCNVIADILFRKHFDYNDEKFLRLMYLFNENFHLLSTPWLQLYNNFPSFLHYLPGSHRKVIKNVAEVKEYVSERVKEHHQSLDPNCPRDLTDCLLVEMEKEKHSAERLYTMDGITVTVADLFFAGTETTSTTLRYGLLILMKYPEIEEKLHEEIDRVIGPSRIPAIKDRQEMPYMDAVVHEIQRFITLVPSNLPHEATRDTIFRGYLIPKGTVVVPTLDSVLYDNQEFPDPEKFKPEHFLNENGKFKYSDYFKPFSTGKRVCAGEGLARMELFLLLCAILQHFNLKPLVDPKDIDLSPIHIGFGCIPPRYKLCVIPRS
Description: In-vitro biological degradation by cytochrome P450 enzymes: CYP2E1. Type of data set: in vitro ADME. As to conditions: 37° C., pH 7.4, 3 mM NADPH, protein 0.5 mg/mL; FIG. 1.

Where [9] appears, read: 37° C., pH 7.4, 3 mM NADPH, protein 0.5 mg/mL, LC/MS/MS, FIG. 1.
Setting [10] is: primary metabolites formed by hydroxylation, FIG. 2.
The mark [11] stands for this setting: relative to tolperisone, FIG. 3.

T1 sequence (P10635 whole entry): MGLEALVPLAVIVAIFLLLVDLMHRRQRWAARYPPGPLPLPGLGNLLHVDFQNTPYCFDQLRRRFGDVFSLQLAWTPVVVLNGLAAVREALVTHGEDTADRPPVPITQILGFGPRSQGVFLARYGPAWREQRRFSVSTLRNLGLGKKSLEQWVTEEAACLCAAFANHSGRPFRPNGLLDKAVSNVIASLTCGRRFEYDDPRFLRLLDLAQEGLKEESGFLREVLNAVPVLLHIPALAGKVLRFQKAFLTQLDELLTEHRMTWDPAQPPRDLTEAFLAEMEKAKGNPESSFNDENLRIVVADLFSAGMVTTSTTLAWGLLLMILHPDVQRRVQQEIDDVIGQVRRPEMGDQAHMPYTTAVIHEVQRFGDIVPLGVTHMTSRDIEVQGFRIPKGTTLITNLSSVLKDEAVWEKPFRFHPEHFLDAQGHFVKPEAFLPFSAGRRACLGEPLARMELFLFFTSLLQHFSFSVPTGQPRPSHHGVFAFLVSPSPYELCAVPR
T2 sequence (P33261 whole entry): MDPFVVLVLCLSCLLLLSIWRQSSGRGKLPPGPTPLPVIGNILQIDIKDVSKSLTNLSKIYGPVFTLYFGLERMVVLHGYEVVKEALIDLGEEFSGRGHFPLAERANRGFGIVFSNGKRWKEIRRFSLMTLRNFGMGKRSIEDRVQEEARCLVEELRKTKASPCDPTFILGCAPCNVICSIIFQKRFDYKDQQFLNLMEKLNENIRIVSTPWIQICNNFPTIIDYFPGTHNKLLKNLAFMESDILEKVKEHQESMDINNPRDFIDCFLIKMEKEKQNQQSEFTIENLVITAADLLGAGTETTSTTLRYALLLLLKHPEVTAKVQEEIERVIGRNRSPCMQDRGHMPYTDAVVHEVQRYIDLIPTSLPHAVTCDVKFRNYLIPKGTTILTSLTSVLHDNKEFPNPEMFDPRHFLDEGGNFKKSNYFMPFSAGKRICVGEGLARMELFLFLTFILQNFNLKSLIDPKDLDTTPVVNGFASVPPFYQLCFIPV
T6 sequence (P08684 whole entry): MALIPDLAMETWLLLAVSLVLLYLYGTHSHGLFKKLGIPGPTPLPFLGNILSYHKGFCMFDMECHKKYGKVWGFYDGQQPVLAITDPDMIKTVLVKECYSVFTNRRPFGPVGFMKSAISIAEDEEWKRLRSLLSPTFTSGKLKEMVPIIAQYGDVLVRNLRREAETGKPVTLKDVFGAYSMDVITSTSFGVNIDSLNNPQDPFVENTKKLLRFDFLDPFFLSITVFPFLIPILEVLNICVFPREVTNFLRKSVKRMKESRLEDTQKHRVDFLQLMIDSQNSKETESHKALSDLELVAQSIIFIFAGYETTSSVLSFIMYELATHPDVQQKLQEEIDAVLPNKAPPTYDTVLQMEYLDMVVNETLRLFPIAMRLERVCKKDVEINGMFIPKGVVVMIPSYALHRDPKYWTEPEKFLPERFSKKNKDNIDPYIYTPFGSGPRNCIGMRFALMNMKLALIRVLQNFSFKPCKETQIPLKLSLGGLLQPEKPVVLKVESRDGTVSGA

As for `Cc1ccc(C(=O)C(C)CN2CCCCC2)cc1` (stereo not drawn) [tolperisone], the “enzymatic degradation (decrease in tolperisone concentration over time) by CYP2D6” value in data set [1] (setting [9]) is recorded as “transformed above all”. Also, in data set [1] (setting [10]), the “formation of hydroxy metabolites by CYP2D6” value is “to the same extent as the substrate is degraded”. For the same compound, the “enzymatic degradation (decrease in tolperisone concentration over time) by CYP2C19” value in data set [2] (setting [9]) was “transformed above all”. For the same compound, in data set [2] (setting [10]), the “formation of hydroxy metabolites by CYP2C19” value is “to the same extent as the substrate is degraded”. Besides, the “contribution to biological degradation by CYP1A1” value in data set [3] is listed as “contribute at most insignificantly”. Further, the “contribution to biological degradation by CYP1A2” value in data set [4] was “contribute at most insignificantly”. Also, the “fraction of the administered dose found unchanged in the blood” value in data set [5] is listed as “one-fifth”. Also, the “contribution to biological degradation by CYP2C8” value in data set [6] was “contribute at most insignificantly”. Also, in data set [7], the “contribution to biological degradation by CYP3A4” value is on record as “contribute at most insignificantly”. Moreover, in data set [8], the “contribution to biological degradation by CYP2E1” value was “contribute at most insignificantly”.

For `[2H]c1c([2H])c(C([2H])([2H])[2H])c([2H])c([2H])c1C(=O)C(C)CN1CCCCC1` (stereo not drawn) [I, 1-[4-(trideuteromethyl)tetradeuterophenyl]-2-methyl-3-piperidin-1-yl-1-propanone], in data set [1] (setting [11]), the “factor by which enzymatic hydroxylation by CYP2D6 is retarded in comparison to tolperisone” value was found to be 10. The “factor by which enzymatic hydroxylation by CYP2C19 is retarded in comparison to tolperisone” value in data set [2] (setting [11]) came out at 10.
